The source of these data is ChEMBL document CHEMBL5465560, “Selectivity Literature for EUbOPEN Chemogenomic Library” (2024).

Assay [1] has as its target T1, Serine/threonine-protein kinase 17B (Homo sapiens) (UniProt O94768).
T1 sequence (whole entry): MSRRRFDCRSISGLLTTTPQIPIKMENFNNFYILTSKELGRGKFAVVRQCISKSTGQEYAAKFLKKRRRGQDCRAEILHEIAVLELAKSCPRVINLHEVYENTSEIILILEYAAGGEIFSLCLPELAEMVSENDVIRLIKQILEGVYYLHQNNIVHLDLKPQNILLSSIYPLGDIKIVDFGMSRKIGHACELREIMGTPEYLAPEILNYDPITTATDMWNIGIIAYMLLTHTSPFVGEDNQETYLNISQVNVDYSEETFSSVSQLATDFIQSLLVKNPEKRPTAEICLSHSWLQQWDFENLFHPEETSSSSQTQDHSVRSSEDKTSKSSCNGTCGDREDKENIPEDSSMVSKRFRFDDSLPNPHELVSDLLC
Description: Selectivity interaction (Kinase panel (DSF assay)) EUB0001558a STK17B.

For assay [2], the system named is Epidermal growth factor receptor (Homo sapiens), P00533 [UNDEFINED MUTATION]. Description: Selectivity interaction (KinomeScan (DiscoverX)) EUB0000229b EGFR. As to conditions: at 1 µM.
Sequence of Epidermal growth factor receptor (Homo sapiens), P00533 [UNDEFINED MUTATION] (P00533 whole entry, looked up, change not shown): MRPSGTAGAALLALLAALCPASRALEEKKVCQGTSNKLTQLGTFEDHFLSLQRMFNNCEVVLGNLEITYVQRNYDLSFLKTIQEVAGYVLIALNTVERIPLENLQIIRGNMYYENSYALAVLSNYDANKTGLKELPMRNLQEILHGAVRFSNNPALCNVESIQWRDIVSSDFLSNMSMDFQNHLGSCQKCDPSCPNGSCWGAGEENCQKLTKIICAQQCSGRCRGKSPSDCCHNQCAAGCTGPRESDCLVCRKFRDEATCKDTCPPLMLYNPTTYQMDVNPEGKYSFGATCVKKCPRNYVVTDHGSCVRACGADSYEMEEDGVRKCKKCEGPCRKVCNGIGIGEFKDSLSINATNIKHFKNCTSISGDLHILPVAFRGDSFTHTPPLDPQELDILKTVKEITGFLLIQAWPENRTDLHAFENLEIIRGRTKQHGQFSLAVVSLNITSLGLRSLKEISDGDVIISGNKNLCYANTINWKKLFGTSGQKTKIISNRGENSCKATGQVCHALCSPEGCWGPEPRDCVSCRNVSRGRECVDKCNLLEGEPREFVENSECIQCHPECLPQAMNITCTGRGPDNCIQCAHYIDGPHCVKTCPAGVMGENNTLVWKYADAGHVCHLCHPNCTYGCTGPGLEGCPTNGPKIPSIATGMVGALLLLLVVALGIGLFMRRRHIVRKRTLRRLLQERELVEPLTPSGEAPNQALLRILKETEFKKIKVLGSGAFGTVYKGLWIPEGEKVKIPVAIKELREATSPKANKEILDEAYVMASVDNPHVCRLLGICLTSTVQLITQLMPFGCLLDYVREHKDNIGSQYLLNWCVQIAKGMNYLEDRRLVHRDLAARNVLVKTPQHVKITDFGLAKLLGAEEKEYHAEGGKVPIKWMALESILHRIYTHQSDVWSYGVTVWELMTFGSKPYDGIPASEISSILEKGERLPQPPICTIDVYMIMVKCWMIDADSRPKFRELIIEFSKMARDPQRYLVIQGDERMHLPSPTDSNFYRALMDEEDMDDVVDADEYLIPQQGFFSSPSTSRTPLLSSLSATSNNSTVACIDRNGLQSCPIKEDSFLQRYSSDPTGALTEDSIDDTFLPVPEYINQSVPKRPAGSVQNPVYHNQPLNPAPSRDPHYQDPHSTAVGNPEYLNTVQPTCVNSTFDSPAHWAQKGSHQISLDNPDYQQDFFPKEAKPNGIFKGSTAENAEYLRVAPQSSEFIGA
Assay [3] has as its target Cyclin-dependent kinase-like 1 (Homo sapiens) (UniProt Q00532). Description: Selectivity interaction (KinomeScan (DiscoverX)) EUB0000655a CDKL1. As to conditions: at 10 µM.
The test system of assay [4] is Receptor-type tyrosine-protein kinase FLT3 (Homo sapiens), P36888 [UNDEFINED MUTATION]. Description: Selectivity interaction (KinomeScan (DiscoverX)) EUB0001079a FLT3. As to conditions: at 1 µM.
The target of assay [5] is Phosphatidylinositol 4-phosphate 3-kinase C2 domain-containing subunit beta (Homo sapiens) (UniProt O00750). Kind of assay: Selectivity interaction (KinomeScan (DiscoverX)) EUB0001619a PIK3C2B. As to conditions: at 1 µM.
Sequence of Phosphatidylinositol 4-phosphate 3-kinase C2 domain-containing subunit beta (Homo sapiens) (O00750 whole entry, the tested form may be a part): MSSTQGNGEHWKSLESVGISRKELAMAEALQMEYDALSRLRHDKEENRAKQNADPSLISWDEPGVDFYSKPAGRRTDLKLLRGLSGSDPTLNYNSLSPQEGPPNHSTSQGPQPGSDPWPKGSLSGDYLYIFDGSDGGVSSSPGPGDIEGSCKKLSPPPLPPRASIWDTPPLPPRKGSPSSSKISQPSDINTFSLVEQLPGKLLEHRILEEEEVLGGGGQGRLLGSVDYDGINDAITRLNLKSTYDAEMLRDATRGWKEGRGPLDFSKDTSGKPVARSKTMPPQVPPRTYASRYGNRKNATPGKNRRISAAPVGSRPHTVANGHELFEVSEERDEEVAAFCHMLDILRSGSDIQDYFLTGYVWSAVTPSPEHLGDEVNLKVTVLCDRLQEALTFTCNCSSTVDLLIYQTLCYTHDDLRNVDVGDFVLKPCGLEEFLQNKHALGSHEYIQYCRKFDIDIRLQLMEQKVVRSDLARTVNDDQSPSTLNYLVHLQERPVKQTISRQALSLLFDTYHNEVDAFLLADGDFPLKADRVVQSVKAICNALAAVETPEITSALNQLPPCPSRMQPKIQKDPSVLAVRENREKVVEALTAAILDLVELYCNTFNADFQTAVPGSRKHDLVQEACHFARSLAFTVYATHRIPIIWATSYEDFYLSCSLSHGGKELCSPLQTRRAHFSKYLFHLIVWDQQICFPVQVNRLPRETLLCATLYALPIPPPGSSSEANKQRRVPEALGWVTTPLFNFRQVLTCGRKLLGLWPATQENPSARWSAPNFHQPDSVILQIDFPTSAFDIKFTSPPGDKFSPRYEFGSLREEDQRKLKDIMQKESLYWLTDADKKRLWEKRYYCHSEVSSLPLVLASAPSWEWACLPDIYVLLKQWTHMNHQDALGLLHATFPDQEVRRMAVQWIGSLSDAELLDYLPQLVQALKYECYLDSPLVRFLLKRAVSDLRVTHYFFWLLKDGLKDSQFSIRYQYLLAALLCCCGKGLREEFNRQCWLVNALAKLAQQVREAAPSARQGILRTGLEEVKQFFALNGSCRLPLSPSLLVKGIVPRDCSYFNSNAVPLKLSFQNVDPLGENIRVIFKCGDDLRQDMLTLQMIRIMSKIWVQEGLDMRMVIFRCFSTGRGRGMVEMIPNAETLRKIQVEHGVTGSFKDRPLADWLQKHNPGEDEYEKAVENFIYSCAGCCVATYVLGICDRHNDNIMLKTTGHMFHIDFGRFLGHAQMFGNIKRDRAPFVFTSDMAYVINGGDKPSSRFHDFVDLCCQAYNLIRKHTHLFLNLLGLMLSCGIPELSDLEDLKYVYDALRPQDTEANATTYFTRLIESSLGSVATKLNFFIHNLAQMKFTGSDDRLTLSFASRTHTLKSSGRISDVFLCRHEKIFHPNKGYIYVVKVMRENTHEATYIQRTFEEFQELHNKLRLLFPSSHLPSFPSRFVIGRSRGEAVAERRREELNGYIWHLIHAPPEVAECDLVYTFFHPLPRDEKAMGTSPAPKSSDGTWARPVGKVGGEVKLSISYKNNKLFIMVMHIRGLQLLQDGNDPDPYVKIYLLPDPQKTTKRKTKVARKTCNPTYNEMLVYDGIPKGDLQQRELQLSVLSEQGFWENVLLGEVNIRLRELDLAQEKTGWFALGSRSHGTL
The target of the next assay is Misshapen-like kinase 1 (Homo sapiens, UniProt Q8N4C8). Kind of assay: Selectivity interaction (Kinase screening (Nanosyn)) EUB0000604a MINK1.
Sequence of Misshapen-like kinase 1 (Q8N4C8 whole entry, looked up): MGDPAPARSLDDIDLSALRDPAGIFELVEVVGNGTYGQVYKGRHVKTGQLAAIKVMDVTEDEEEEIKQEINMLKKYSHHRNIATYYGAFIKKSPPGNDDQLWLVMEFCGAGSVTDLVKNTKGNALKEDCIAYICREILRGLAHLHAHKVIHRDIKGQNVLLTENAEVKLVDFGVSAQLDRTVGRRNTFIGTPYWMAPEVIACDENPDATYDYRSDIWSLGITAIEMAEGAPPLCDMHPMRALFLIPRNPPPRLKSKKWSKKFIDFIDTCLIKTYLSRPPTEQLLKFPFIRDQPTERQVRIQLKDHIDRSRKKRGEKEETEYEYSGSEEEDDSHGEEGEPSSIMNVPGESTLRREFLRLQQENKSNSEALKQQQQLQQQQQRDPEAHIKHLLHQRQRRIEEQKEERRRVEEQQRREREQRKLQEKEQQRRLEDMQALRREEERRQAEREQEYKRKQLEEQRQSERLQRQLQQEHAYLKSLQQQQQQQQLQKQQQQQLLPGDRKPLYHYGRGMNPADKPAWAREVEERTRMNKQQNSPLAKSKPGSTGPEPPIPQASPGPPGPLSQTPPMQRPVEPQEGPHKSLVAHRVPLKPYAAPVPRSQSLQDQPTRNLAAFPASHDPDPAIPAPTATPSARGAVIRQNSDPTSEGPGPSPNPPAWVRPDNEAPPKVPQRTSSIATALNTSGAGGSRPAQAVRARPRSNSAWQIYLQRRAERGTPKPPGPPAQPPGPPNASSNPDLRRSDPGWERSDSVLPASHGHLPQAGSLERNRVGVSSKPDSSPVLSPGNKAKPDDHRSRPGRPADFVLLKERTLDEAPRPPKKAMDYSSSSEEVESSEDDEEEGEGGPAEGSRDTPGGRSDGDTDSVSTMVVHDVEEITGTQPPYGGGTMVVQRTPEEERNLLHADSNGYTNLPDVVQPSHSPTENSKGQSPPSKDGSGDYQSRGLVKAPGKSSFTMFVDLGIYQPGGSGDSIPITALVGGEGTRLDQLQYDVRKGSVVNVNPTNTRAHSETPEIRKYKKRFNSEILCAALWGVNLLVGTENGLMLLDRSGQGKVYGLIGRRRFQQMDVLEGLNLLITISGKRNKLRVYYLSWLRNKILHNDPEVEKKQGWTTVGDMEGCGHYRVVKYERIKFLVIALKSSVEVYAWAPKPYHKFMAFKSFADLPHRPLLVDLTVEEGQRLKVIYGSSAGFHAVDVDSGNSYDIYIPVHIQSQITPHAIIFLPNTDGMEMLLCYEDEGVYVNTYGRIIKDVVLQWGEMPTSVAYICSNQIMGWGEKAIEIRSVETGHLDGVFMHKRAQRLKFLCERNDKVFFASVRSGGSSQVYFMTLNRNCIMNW
Assay [6] addresses T2, Serine/threonine-protein kinase ULK1 (Homo sapiens) (UniProt O75385).
T2 sequence (whole entry): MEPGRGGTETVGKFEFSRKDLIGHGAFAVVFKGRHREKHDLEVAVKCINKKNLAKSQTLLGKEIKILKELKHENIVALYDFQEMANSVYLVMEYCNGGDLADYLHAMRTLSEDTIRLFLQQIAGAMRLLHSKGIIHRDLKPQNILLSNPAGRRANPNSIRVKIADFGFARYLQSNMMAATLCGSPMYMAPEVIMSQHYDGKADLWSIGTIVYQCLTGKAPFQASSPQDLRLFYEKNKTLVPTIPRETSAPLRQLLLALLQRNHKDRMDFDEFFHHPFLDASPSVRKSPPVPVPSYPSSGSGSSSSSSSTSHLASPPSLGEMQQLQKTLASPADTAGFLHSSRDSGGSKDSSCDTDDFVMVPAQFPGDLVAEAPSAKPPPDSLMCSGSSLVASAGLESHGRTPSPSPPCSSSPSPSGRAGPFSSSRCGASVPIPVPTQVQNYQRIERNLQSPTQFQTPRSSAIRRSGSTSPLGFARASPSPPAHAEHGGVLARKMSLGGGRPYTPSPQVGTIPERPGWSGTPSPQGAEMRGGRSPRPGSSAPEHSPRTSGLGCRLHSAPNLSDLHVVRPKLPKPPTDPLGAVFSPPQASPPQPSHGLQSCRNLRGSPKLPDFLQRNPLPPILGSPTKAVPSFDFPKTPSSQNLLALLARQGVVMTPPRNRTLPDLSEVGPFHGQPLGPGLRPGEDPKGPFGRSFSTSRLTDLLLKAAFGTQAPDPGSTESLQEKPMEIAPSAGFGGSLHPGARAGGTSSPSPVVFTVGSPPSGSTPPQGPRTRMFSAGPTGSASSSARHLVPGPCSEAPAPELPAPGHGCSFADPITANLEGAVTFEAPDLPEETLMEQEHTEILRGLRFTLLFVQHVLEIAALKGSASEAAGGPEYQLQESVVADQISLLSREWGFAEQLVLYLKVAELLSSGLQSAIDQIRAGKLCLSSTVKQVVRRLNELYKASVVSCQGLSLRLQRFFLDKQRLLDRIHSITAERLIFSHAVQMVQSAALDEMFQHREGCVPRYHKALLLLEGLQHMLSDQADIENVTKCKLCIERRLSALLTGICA
Kind of assay: Selectivity interaction (KinomeScan (DiscoverX)) EUB0000092b ULK1. As to conditions: at 10 µM.

Assay [7] addresses Ribosomal protein S6 kinase alpha-6 (Homo sapiens, UniProt Q9UK32). Description: Selectivity interaction (KinomeScan (DiscoverX)) EUB0000045b RPS6KA6. The following applies: at 1 µM.
Assay [8] deals with Serine/threonine-protein kinase/endoribonuclease IRE1 (Homo sapiens) (UniProt O75460). Description: Selectivity interaction (KinomeScan (DiscoverX)) EUB0000618a ERN1. As to conditions: at 10 µM.
Sequence of Serine/threonine-protein kinase/endoribonuclease IRE1 (Homo sapiens) (O75460 19-977 limits assumed): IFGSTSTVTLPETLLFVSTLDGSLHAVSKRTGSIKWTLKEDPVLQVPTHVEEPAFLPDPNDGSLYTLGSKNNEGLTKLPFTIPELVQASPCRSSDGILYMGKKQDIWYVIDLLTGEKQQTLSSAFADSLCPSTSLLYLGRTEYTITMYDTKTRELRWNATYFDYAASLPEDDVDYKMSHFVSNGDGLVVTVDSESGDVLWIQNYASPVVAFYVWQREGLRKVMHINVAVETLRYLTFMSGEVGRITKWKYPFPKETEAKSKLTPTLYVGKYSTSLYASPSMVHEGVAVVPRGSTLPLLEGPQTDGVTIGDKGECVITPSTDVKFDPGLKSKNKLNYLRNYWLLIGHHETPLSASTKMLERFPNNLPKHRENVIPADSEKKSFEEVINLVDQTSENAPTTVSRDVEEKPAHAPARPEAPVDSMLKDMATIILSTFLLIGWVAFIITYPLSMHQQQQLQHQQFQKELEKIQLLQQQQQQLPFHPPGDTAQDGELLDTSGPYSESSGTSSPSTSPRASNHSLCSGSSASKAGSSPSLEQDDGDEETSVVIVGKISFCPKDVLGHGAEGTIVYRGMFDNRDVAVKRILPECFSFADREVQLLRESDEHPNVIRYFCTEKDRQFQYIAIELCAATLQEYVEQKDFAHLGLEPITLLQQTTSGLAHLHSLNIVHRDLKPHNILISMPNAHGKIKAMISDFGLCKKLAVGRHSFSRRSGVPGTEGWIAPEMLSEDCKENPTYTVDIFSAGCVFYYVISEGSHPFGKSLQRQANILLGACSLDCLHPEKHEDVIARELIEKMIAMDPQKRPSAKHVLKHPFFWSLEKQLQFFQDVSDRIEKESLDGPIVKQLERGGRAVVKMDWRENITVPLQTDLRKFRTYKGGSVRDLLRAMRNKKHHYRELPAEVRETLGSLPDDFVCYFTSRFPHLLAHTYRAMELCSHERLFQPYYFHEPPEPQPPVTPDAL

With `CC(C)(O)[C@H](F)CN1Cc2cc(NC(=O)c3cnn4cccnc34)c(N3CCOCC3)cc2C1=O`, the dTM in [1] was found to be 1.7 K.

In [2], `COc1cc(N(C)c2ccnc3ccc(C(F)(F)F)cc23)cc(OC)c1OC` displayed a % binding of 92%.

On to `CN(C)CCOc1ccc(-c2nc(-c3ccncc3)c(-c3ccc4c(c3)CC/C4=N\O)[nH]2)cc1`, for which the % of control in assay [3] was 100%.

`Nc1cnc(N2CCc3cc(S(=O)(=O)Nc4c(F)cc(Cl)cc4F)cc(N4CCCC4=O)c32)nc1` [TP-020n] had a % of control in [4] of 100%.

As to `N#Cc1cccc(-c2c[nH]c3ncnc(N4CCOCC4)c23)c1`, the % of control in assay [5] was 100%.

For the molecule `Cc1cnc(Nc2ccc(F)cc2Cl)nc1-c1c[nH]c(C(=O)N[C@H](CO)c2cccc(Cl)c2)c1`, the % of inhibition at Misshapen-like kinase 1 is 18%.

Consider `CCC(=O)N1CCN(c2ccc(-n3c(=O)ccc4cnc5ccc(-c6cnc7ccccc7c6)cc5c43)cc2C(F)(F)F)CC1`, for which, in assay [6], the % of control is 100%.

In turn, `C=CC(=O)Nc1cc(-n2c(=O)ccc3cnc4ccc(-c5ccc(NS(C)(=O)=O)cc5)cc4c32)ccc1C` returned a % of control in assay [7] of 56%.

On to `O[C@H]1CC[C@H](Nc2ncc3nc(Nc4c(F)cc(F)cc4F)n([C@H]4CCOC4)c3n2)CC1`, for which the % of control in [8] turned out to be 46%.
